Reference: patent US9827189B2, “Stable parenteral DNJ compositions” (AMICUS THERAPEUTICS, INC., priority 2013, dated 2017)

Tests used:
[1] = Stability and integrity of 1-DNJ-HCl in buffer solutions at 60° C. by NP-HPLC (UV and CAD) and discoloration; assay type: physicochemical; settings: 1-DNJ/buffer formulations with a pH in the range of about 6.0-7.5
Experimental: 1-DNJ-HCl was dissolved in sodium phosphate buffer. 1-DNJ-HCl concentration was 60 mg/mL; sodium phosphate buffer concentration was 100 mM at pH 4.89. The formulation was stored at 60° C. for 4 days. 1-DNJ-HCl solution in water was used as a control. Reaction rate for small molecules such as 1-DNJ-HCl generally follows Arrhenius equation where reaction rate nearly doubles for every 10° C. increase in the temperature. Thus, under this model, the reaction rate at 60° C. would be 2^5 or 32 times the reaction rate at 10° C. Therefore during 4 days at 60° C. 1-DNJ-HCl would degrade by approximately the same percentage as during 128 days (4*32) at 10° C. The stability of 1-DNJ-HCl was measured by normal phase high performance liquid chromatography (NP-HPLC). 1-DNJ-HCl was recorded by UV chromatograms and by Charged Aerosol Detector (CAD) chromatograms. Mobile phase consisted of ACN/30 mM Ammonium Acetate (90/10, v/v). The flow rate was 1.0 ml/min with 5 μl injection at 400° C. UV absorbance was measured at 220 nm CAD detector settings were 35.0 psi, Gain: 100 pA. 1-DNJ-HCl was dissolved in sodium acetate buffer. The 1-DNJ-HCl concentration was 60 mg/mL; sodium acetate buffer concentration was 50 mM at pH 5.5. The formulation was stored at 60° C. for 4 days. 1-DNJ-HCl solution in water was used as control. Reaction rate for small molecules such as 1-DNJ-HCl generally follows the Arrhenius equation, in which the reaction rate nearly doubles for every 10°K increase in the temperature. Thus the reaction rate, under this model, at 60° C. would be 2^5 or 32 times the reaction rate at 10° C. Therefore during 4 days at 60° C. 1-DNJ-HCl would degrade by approximately same percentage as during 128 days at 10° C. The stability of 1-DNJ-HCl was measured by NP-HPLC. Presence of 1-DNJ-HCl was recorded by UV absorbance detector and by Charged Aerosol Detector. Mobile phase consisted of ACN/30 mM Ammonium Acetate (90/10, v/v). The flow rate was 1.0 ml/min with 5 μl injection at 400 C. UV absorbance was measured at 220 nm. CAD detector settings were 35.0 psi, Gain: 100 pA. 1-DNJ-HCl was dissolved in sodium citrate buffer that further includes EDTA. 1-DNJ-HCl concentration was 60 mg/mL; sodium citrate buffer concentration was 50 mM at pH 4.6. The EDTA concentration was 0.05% w/v. Some samples were stored under the nitrogen atmosphere (essentially 100% nitrogen) while others were stored under air. The formulation was stored at 60° C. for 8 days. Stability of 1-DNJ-HCl was measured by NP-HPLC. Presence of 1-DNJ-HCl was recorded by UV absorbance detector and by Charged Aerosol Detector. Mobile phase consisted of ACN/30 mM Ammonium Acetate (90/10, v/v). The flow rate was 1.0 ml/min with 5 μl injection at 400 C. UV absorbance was measured at 220 nm. CAD detector settings were 35.0 psi, Gain: 100 pA. 1-DNJ-HCl was dissolved in sodium citrate buffer. 1-DNJ-HCl concentration was 60 mg/mL; sodium citrate buffer concentration was 50 mM at pH 4.7. The formulation was stored at 60° C. for 8 days. 1-DNJ-HCl solution in water was used as control. Stability of 1-DNJ-HCl was measured by NP-HPLC. Presence of 1-DNJ-HCl was recorded by UV absorbance detector and by Charged Aerosol Detector. Mobile phase consisted of ACN/30 mM Ammonium Acetate (90/10, v/v). The flow rate was 1.0 ml/min with 5 μl injection at 400 C. UV absorbance was measured at 220 nm. CAD detector settings were 35.0 psi, Gain: 100 pA. 1-DNJ-HCl was dissolved in sodium citrate buffer. 1-DNJ-HCl concentration was 60 mg/mL; sodium citrate buffer concentration was 50 mM at pH 5.0. The formulation was stored at 60° C. for 17 days. The samples were stored under the nitrogen atmosphere (essentially 100% nitrogen). 1-DNJ-HCl solution in water was used as control. Reaction rate for small molecules such as 1-DNJ-HCl generally follows Arrhenius equation where reaction rate nearly doubles for every 10°K increase in the temperature. Thus reaction rate at 60° C. would be 2^5 or 32 times the reaction rate at 10° C. Therefore during 17 days at 60° C. […]

[2] = tested on: human whole blood; experiment: Hemolytic potential in human whole blood; assay type: cell-based; settings: 37 ° C. 30 minutes
Experimental: (§1) 1-DNJ-HCl was dissolved in sodium citrate buffer. 1-DNJ-HCl concentration was 30 mg/mL (resulting free 1-DNJ concentration was 25 mg/mL); sodium citrate buffer concentration was 50 mM at pH 5.0. 1-DNJ-HCl formulation was added to whole blood samples of male human, rat, and cynomolgus monkey. […]. Buffer served as a negative control, while Triton-X 100 (Lysing agent) served as a positive control. Additionally blood sample without any additions was used as a negative control. The samples were stored at 4° C. Blood samples were incubated at 37 ° C. for 30 minutes with the 1-DNJ-HCl formulation, after which the samples were centrifuged. The amount of hemoglobin in the supernatant from each centrifuged sample was measured using a commercially available hemoglobin assay kit (BioAssay Systems, QuantiChrom™ Hemoglobin Assay Kit) and the Tecan microplate reader.

[3] = tested on: rat whole blood; experiment: Hemolytic potential in rat whole blood; assay type: cell-based, Sprague Dawley rat; settings: 37 ° C. 30 minutes
Experimental: as §1

[4] = tested on: cynomolgus monkey whole blood; experiment: Hemolytic potential in cynomolgus monkey whole blood; assay type: cell-based; settings: 37 ° C. 30 minutes
Experimental: as §1

[5] = 500 μL blood mixed with 500 μL sample (30 mg/mL AT2220 or 0.1% Triton X-100)
[6] = 500 μL blood mixed with 500 μL sample, 30 mg/mL AT2220 dilution 1, 0.1% Triton X-100 dilution 100
[7] = supernatant, 500 μL blood mixed with 500 μL sample (30 mg/mL AT2220 or 0.1% Triton X-100)

Discoloration [1]	Compound	% RBC lysis [2, 5] [%]	Avg OD (n = 4) [2, 6]	Hemoglobin [2, 7] [mg/dL]	% RBC lysis [3, 5] [%]	Avg OD (n = 4) [3, 6]	Hemoglobin [3, 7] [mg/dL]	% RBC lysis [4, 5] [%]	Avg OD (n = 4) [4, 6]	Hemoglobin [4, 7] [mg/dL]
discoloration may occur	OC[C@H]1NC[C@H](O)[C@@H](O)[C@@H]1O [1-DNJ, 1-deoxynojirimycin]	–	–	–	–	–	–	–	–	–
–	Triton X-100	100.0	0.2768	6899	100.0	0.2567	6398	100.0	0.2000	4984
